Laboratory results as given in ChEMBL document CHEMBL1130901, “Halohydrin analogues of cryptophycin 1: synthesis and biological activity” (Bioorg Med Chem Lett, 1998).

Experiments:
[1] = Half life in PEM buffer at pH 7.4; type: ADME
[2] = Half life in phosphate buffer at pH 7.4; type: ADME
[3] = Tested in vitro for the concentration that reduces the amount of pelleted protein by 50% in microtubule assembly assay.; type: functional

half-life [1] [min] | half-life [2] [min] | Compound | ED50 [3] [mM]
< 1 | 2.5 | COc1ccc(C[C@H]2NC(=O)/C=C/C[C@@H]([C@H](C)[C@@H](O)[C@@H](I)c3ccccc3)OC(=O)[C@H](CC(C)C)OC(=O)[C@H](C)CNC2=O)cc1Cl | –
3.7 | 11 | COc1ccc(C[C@H]2NC(=O)/C=C/C[C@@H]([C@H](C)[C@@H](O)[C@@H](Br)c3ccccc3)OC(=O)[C@H](CC(C)C)OC(=O)[C@H](C)CNC2=O)cc1Cl | –

Compound | half-life [1] [min] | half-life [2] [min] | ED50 [3] [mM]
COc1ccc(C[C@H]2NC(=O)/C=C/C[C@@H]([C@H](C)[C@@H](O)[C@@H](Cl)c3ccccc3)OC(=O)[C@H](CC(C)C)OC(=O)[C@H](C)CNC2=O)cc1Cl | 75 | 660 | 7.5
